3 compounds from EP0016703A1, “Lysine salt of (+/-) 3-amino-4-(1-pyrrolyl)-alpha-methylphenyl-acetic acid, process for its preparation and pharmaceutical composition containing it” (LIPHA, LYONNAISE INDUSTRIELLE PHARMACEUTIQUE, priority 1979, dated 1980) can be followed below.

Read-outs that look alike come from different tables or passages of the source.

One data set is described as follows: in vivo. The following applies: in vivo. An excerpt:
(§1) A - La DL 50 a été déterminée chez la souris et le rat par les voies orale et I.V., selon MILLER et TAINTER (Proc. Soc. Exp. Biol. Medecine, 1944, 57, 261.

In the next data set the test system is oedème à la carragénine. Briefly: Anti-inflammatory activity, carrageenan oedema test (Winter et al.). The class given is in vivo. The following applies: Administration P.O, dose that inhibits the oedema by 30 %; for ED30: Rattus norvegicus, po, read-out: Oedème à la carra-génine DE.30. From the text:
C - L'activité anti-inflammatoire a été démontrée par le test de l'oedème à la carragénine, selon WINTER et Col. (Proc. Exp. Biol. Med., 1962, 111, 544. On recherche .la protection que confère le traitement par le pro- duit administré P.O. au rat, vis à vis d'un oedème déclenché par injection sous la voûte plantaire, d'une suspension de carragénine. La dose efficace 30 est celle qui inhibe l'oedème de 30 %.

Data set [1] has as its system contractions douloureuses. Briefly: Analgesic activity, acetic acid writhing test (Koster et al.). The class given is in vivo. To be noted: souris, Administration P.O, dose that reduces the number of painful contractions by 50 %. From the text: B - L'activité analgésique a été déterminée chez 1a souris par la méthode de KOSTER et Col. (Fed. Proc. 1959, 18, 412). On détermine la dose efficace 50, dose qui administrée P.O. diminue de 50 % le nombre des contractions douloureuses déclenchées par l'injection in- trapéritonéale d'une solution diluée d'acide acétique.

A further data set concerns érythème aux U.V. Briefly: Protection against early inflammation, UV erythema method (Winder et al.). It is filed as in vivo. To be noted: cobaye albinos, Administration P.O, dose that moderates erythema intensity by 50 %; for ED50: Cavia porcellus, po, read-out: Erythème aux U.V. DE.50. An excerpt:
D - L'activité protectrice vis-à-vis de l'inflammation précoce a été mise en évidence sur le cobaye albinos selon la méthode de l'érythème aux U.V. (WINDER et Col., Arch. Int. Pharmacodyn. 1958, 116, 261). La dose efficace 50 est la dose qui.donnée P.O., modère de 50 % l'intensité de l'érythème induit par exposition à un rayonnement U.V. de la surface dorsale épilée des cobayes.

Another data set concerns souris. Kind of data set: in vivo. The following applies: P.O.
From the text: as §1

Another data set relates to rat. Briefly: in vivo.
From the text: as §1

A further data set can be described thus: Solubility in water. It is filed as physicochemical.

With `CC(C(=O)O)c1ccc(-n2cccc2)c(N)c1` (racemic) [Composé B, acide (±) amino-3 (pyrrolyl-1') -4α- méthyl phényl acétique], the LD50 in the data set “in vivo” (mouse, po, souris, P.O., read-out: DL. 50 souris P.O.) was 3000 mg/kg; in the data set “in vivo” (rat, po, P.O., read-out: DL. 50 rat P.O.) it was 392 ± 50 mg/kg. Besides, the ED30 in the data set on oedème à la carragénine is 12 mg/kg. Moreover, in data set [1], the “Acide acétique DE.50” value is 19 mg/kg. In the data set with érythème aux U.V., the ED50 is 4.7 mg/kg.
With `CCCCC1C(=O)N(c2ccccc2)N(c2ccccc2)C1=O` [Phénylbuta-zone, butyl-4 diphényl-1,2 pyrazolidine dione-3,5], the ED30 in the data set with oedème à la carragénine stood at 35 mg/kg. The ED50 in data set [1] (Mus musculus, po, read-out: Acide acétique DE.50) came to 93 mg/kg; with érythème aux U.V., 3.7 mg/kg.
In the case of `CC(C(=O)O)c1ccc(-n2cccc2)c(N)c1` (racemic) [Composé C, sel de (±) lysine de l'acide (±) amino-3 (pyrrolyl-l')-4 α- méthyl phénylacétique], the LD50 in the data set “in vivo” (mouse, iv, souris, I.V., read-out: DL. 50 souris I.V.) is > 1600 mg/kg. Moreover, the “DL. 50 souris P.O.” value in the data set on souris was >3200 mg/kg. The “DL. 50 rat P.O.” value with rat came out at 697 ± 103 mg/kg. Also, in the data set with oedème à la carragénine (rat), the “Oedème à la carra-génine DE.30” value was 15 mg/kg. In the data set “Solubility in water”, the “solubilité dans l'eau” value is “parfaite solubilité dans l'eau”. Further, in data set [1], the “Acide acétique DE.50” value was 42 mg/kg. In the data set with érythème aux U.V., the “Erythème aux U.V. DE.50” value is listed as 4,8 mg/kg.
